Like-named read-outs stand apart in the source and are kept apart here. Bounds are passed on as bounds.

The target in one assay is T1, PRMT1 (Homo sapiens, UniProt Q99873).
T1 construct: residues 2-371, N-terminal GST fusion, E. coli
The experiment in a line: HotSpot [3H]SAM filter-binding methyltransferase assay. It counts as biochemical.

The target of a further assay is T2, DOT1L (Homo sapiens, UniProt Q8TEK3).
T2 construct: residues 1-416, N-terminal GST fusion, E. coli
The assay is described as above. In kind it is biochemical.

The target of the next assay is MLL4 Complex (Homo sapiens, UniProt Q9UMN6). Described as above. In kind it is biochemical. The arrangement: gene KMT2B; complex assembled as MLL1; MLL4 here is KMT2B (NM_014727), His tag, E. coli; with WD repeat-containing protein 5; Set1/Ash2 histone methyltransferase complex subunit ASH2; Protein dpy-30 homolog.
MLL4 Complex, sequence (Q9C005 whole entry, the tested form may be a part): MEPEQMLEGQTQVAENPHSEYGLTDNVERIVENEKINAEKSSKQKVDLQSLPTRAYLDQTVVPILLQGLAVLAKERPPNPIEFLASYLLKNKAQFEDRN
MLL4 Complex, sequence (Q9UBL3 96-628, further chain): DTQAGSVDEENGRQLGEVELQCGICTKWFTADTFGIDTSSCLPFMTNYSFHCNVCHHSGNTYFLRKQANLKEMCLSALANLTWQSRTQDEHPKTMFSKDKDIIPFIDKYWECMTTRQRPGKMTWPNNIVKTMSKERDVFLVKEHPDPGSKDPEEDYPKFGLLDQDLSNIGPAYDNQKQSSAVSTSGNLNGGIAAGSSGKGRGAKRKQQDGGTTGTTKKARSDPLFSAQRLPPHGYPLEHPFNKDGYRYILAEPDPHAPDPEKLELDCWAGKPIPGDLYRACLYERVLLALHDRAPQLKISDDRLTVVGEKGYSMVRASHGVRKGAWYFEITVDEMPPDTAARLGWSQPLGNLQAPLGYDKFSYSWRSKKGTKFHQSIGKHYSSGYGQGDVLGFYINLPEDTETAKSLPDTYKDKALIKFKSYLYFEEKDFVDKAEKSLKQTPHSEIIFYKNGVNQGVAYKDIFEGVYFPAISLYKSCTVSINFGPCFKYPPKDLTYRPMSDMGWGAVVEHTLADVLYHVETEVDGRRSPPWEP
MLL4 Complex, sequence (Q15291 whole entry, further chain, the tested form may be a part): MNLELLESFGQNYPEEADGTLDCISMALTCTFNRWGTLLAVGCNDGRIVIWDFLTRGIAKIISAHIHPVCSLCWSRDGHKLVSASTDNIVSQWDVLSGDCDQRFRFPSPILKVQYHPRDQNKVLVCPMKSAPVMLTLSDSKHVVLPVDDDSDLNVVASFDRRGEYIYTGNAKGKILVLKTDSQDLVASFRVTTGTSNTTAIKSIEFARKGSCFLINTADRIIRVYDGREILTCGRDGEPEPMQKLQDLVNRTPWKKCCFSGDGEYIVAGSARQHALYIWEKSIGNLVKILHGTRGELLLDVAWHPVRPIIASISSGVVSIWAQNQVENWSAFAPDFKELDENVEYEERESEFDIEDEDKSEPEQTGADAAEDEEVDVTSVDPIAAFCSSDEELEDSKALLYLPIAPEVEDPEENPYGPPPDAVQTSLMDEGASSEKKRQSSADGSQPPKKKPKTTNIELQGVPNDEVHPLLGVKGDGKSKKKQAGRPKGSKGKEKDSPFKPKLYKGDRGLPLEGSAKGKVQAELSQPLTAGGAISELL
MLL4 Complex, sequence (Q9UMN6 2490-2715): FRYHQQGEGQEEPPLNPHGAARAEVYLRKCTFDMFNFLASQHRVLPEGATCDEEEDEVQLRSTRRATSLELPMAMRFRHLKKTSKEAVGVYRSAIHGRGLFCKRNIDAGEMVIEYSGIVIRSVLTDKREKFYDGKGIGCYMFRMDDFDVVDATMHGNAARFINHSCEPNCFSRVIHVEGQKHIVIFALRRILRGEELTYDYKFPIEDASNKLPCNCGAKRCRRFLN
For another assay, the target named is PRMT3 (Homo sapiens, UniProt O60678). The description is as above. In kind it is biochemical. More on the design: residues 2-531, N-terminal His tag, E. coli.
PRMT3, sequence (O60678 2-531): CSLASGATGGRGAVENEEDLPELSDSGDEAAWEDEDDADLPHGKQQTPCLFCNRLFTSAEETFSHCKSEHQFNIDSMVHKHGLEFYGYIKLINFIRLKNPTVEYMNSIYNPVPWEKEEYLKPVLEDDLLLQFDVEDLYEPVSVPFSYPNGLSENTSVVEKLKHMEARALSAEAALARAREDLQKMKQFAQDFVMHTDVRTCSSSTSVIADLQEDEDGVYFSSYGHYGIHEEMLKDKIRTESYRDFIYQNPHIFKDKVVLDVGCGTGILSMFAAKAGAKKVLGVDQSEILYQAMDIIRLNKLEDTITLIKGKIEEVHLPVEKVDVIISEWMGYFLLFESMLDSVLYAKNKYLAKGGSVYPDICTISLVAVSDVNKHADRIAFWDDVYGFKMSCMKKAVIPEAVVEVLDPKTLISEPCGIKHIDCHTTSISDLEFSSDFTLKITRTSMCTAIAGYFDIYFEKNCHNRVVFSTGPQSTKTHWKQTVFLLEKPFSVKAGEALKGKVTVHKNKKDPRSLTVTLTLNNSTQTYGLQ
The next assay concerns the target SET1b Complex (Homo sapiens, UniProt Q9UPS6). Described as above. In kind it is biochemical. The arrangement: gene SETD1B; complex assembled as MLL1; SET1B N-terminal GST tag, E. coli; with WD repeat-containing protein 5; Set1/Ash2 histone methyltransferase complex subunit ASH2; Protein dpy-30 homolog.
In another assay the target is T3, DNMT3b (Homo sapiens, UniProt Q9UBC3).
T3 construct: residues 2-853, N-terminal GST fusion, insect cell/baculovirus
Described as above. It counts as biochemical.

The target in the next assay is T4, PRMT4 (Homo sapiens, UniProt Q86X55).
T4 construct: gene CARM1
T4 sequence (Q86X55 whole entry): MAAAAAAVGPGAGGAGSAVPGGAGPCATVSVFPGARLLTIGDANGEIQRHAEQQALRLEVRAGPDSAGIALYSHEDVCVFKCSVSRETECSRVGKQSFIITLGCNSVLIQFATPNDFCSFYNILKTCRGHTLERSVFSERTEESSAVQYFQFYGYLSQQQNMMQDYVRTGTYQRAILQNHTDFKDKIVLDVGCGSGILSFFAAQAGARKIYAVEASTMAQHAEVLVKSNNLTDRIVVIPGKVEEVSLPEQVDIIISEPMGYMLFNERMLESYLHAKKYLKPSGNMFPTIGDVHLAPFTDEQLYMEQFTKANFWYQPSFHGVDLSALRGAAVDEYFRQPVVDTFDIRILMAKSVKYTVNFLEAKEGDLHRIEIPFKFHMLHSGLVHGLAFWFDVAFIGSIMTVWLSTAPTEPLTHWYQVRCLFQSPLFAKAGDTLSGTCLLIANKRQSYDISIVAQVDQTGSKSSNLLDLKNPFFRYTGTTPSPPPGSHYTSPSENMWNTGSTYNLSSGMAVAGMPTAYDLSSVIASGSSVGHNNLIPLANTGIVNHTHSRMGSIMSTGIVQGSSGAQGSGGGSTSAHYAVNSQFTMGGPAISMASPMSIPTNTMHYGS
The settings on record: read-out: DA3003-1 IC50; inhibitor.

The target in another assay is T5, SET7/9 (Homo sapiens, UniProt Q8WTS6).
T5 construct: gene SETD7
T5 sequence (Q8WTS6 1-366): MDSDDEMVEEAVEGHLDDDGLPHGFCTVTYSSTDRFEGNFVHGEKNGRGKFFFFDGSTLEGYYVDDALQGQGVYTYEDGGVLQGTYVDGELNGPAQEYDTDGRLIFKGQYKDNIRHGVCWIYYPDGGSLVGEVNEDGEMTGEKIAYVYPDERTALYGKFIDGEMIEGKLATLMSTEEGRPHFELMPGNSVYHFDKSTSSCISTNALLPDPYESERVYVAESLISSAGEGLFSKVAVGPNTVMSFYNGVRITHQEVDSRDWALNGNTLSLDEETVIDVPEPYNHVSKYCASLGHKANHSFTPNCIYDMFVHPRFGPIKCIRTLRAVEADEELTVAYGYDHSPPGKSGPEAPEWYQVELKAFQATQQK
The experiment in a line: biochemical.

The target of the next assay is PRMT5 (Homo sapiens, UniProt O14744). The experiment in a line: biochemical.
PRMT5, sequence (O14744 whole entry): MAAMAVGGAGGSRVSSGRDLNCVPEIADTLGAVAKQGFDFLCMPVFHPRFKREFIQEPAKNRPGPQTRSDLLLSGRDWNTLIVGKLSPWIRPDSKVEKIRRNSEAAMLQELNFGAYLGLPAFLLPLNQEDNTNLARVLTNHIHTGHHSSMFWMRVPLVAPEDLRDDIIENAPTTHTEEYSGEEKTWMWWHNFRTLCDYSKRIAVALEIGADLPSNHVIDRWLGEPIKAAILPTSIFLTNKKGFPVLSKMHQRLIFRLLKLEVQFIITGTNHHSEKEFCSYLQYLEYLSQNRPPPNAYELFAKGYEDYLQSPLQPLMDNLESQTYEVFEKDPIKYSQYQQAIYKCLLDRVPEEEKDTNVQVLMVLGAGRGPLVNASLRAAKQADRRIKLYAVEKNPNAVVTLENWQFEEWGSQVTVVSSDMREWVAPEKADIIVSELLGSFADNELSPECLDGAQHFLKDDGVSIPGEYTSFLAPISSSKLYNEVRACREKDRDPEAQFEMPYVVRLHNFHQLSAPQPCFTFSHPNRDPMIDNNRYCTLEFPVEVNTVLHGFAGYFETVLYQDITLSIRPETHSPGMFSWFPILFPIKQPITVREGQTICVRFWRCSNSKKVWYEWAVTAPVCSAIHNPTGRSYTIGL
Setting [1] is: read-out: DA3003-1 IC50, inhibitor.
Where [2] appears, read: histone H4, […] SAM, pH […] MgCl2, […] DTT, […] °C, single experiment.
Where [3] appears, read: nucleosomes, […] SAM, pH […] MgCl2, […] DTT, […] °C, single experiment.

T1 sequence (Q99873 2-353 isoform Q99873-3): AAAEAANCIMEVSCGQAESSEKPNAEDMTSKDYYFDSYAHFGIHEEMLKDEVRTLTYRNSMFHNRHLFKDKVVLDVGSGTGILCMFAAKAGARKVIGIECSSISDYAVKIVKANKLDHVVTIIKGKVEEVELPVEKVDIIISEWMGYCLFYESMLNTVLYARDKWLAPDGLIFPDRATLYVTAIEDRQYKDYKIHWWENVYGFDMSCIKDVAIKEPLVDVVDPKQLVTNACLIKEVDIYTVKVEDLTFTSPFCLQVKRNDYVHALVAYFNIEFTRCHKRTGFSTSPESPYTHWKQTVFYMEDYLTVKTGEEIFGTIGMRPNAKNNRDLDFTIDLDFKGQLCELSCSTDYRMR
T2 sequence (Q8TEK3 1-416): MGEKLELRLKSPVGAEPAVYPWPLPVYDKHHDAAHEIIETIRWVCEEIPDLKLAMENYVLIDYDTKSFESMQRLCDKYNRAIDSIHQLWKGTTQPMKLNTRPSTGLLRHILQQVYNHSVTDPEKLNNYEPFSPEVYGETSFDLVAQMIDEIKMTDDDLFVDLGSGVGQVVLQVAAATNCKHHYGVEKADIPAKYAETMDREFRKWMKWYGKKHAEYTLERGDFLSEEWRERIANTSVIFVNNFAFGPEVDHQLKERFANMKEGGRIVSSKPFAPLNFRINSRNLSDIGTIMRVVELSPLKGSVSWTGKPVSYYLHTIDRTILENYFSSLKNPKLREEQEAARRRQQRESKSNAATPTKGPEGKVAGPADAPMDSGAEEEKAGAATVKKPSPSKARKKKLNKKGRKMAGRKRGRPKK
SET1b Complex, sequence (Q15291 whole entry): as the sequence (Q15291 whole entry, further chain, the tested form may be a part) above
SET1b Complex, sequence (Q9UPS6 1672-1966): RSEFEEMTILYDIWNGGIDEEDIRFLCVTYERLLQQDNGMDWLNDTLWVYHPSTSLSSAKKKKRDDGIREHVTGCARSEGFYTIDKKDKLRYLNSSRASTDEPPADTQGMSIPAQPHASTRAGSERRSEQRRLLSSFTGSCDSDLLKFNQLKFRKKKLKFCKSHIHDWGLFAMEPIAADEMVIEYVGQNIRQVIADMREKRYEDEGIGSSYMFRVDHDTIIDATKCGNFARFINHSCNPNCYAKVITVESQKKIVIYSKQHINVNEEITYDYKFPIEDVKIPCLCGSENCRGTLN
SET1b Complex, sequence (Q9C005 whole entry, further chain): as the sequence (Q9C005 whole entry, the tested form may be a part) above
SET1b Complex, sequence (Q9UBL3 96-628, further chain): as the sequence (Q9UBL3 96-628, further chain) above

For the compound `CC1(C)CCC(CN2CCN(c3ccc(C(=O)NS(=O)(=O)c4ccc(NCC5CCOCC5)c([N+](=O)[O-])c4)c(Oc4cnc5[nH]ccc5c4)c3)CC2)=C(c2ccc(Cl)cc2)C1` [ABT-199], the IC50 on PRMT1 is 83 µM; on DOT1L it was 2 µM; at MLL4 Complex it was 0.52 µM; on PRMT3 it was 36 µM; on SET1b Complex it was 7.1 µM; on DNMT3b, above 100 µM.

Take `O=C1C(Cl)=C(NCCN2CCOCC2)C(=O)c2ncccc21` [DA3003-1]: the results for the IC50 on PRMT4, at SET7/9 (setting [1]) and on PRMT5 (setting [1]) were 1.4 µM, 1.4 µM and 0.65 µM, respectively.

As for `COc1cccc(-n2nc(C(=O)O)cc2-c2ccc(C3CCCCC3)c(Cl)c2)c1` [TC LPA5 4], the IC50 on PRMT1 (setting [2]) worked out at 68 µM; at DOT1L (setting [3]) it was 8.2 µM; on MLL4 Complex (setting [3]), 1 µM; on PRMT3 (setting [2]) it was 5.7 µM; on SET1b Complex (core histone, […] SAM, pH […] MgCl2, […] DTT, […] °C, single experiment), 8 µM; on SET7/9, 52 µM. The IC50 at DNMT3b (lambda DNA, […] SAM, pH […] EDTA, […] DTT, […] °C, single experiment) came out at 24 µM; on PRMT5, 17 µM.

Usually IC50 stands for the midpoint of a concentration-inhibition curve.

Source of the values: doi:10.1101/208439v1 (biorxiv, 2017).
